# Experimental data from patent US6042841A, “Cosmetic method of treating skin” (Unilever Home & Personal Care USA Division of Conopco, Inc., priority 1998, dated 2000).
# Experiments:
# [1] = system: ICAM; test: ICAM-1 assay, PMA-induced ICAM production in human skin fibroblasts; assay type: cell-based; conditions: PMA (10 nM)-treated; N 4
# Experimental: Intracellular adhesion molecules (ICAM) and PEG2 production by human skin fibroblasts can be induced by the inflammatory stimulus PMA (phorbal myristate acetate). PMA represents an external stressor which induces oxidative stress and inflammatory responses in cells. This model is used to model inflammation in vivo.
# Primary human foreskin fibroblasts at passage 2 (P2) were seeded into 96-well plates at 10000 cells/well and maintained for 24 hours in an atmosphere of 5% carbon dioxide in Dulbeccos Modified Eagles Medium (DMEM) supplemented with 10% foetal calf serum. […] Phorbal myristate acetate (PMA) (Sigma) was added to the media and the cells incubated for a further 24 hours. […] The fibroblasts/media were then analysed as described below immediately or snap frozen in liquid nitrogen and stored at -70° C. for future analysis. The cells were then counted and data from the dot-blot analysis subsequently standardised to cell number.
# ICAM-1 assay: Media were discarded and cells washed with Dulbecco PBS. To the washed cells, 150 μl 0.1% Triton X-100 (Sigma) was added for 3 minutes to extract ICAM from cell membrane. The extracts were transferred to Eppendoff centrifuge tubes and centrifuged at 1000 g for 2 min to remove cell debris. A volume of 100 μl supernatant was used for ICAM assay. The soluble ICAM-1 was assessed with commercially available immunoenzymometric assay kit (R&D Systems). Concentrations of ICAM-1 in the samples were determined based on parallelly running standard curve.
# [2] = system: keratinocytes; test: Keratinocyte SDS viability assay (Neutral Red); assay type: cell-based; conditions: Keratinocyte; SDS 2 μg/ml, PA 0; 24 hours; n 8
# Experimental: After incubating for 24 hours the medium was removed and the viability determined by the Neutral Red method.
# [3] = system: decorin; test: Immunohistochemical analysis of decorin expression in photodamaged skin biopsies after topical retinoic acid; assay type: in vivo, human (women); conditions: for No. of Participants showing marked increase in expression of decorin: 0.05% retinoic acid topical
# Description: (§1) Two groups of women were recruited with identical or nearly identical degrees of mild to moderate photodamage on each outer forearm. They were supplied with 0.05% retinoic acid in a moisturising base (Retinova®) and also with a colour matched moisturising cream with similar sensory characteristics (Dermacare® lotion), but no active ingredients, as a placebo control. Each participant of the two groups applied the Retinova® to one outer forearm and placebo (Dermacare®) to the other outer forearm. Group 1 applied the products daily to their outer forearms for 14 weeks and the Group 2 applied the products to their outer forearms for 28 weeks. At the end of the studies two full thickness 4 mm punch biopsies were taken from the treated areas of each forearm. Immunohistochemical analysis of the biopsy tissue taken from the participants was performed to identify the effect of retinoic acid treatment on the expression of the skin extracellular matrix components, decorin and procollagen-I, as compared with the placebo treated forearms. The following procedure was followed:
# (§2) Antibody dilution buffer for wax sections was composed of Tris Buffered Saline (TBS), 3% bovine serum albumin (BSA), 0.05% Triton X-100 and 0.05% sodium azide. Primary antibodies for procollagen-I (amino terminal) were obtained from Chemicon International Inc. (cat# MAB 1912, rat IgGl) and used on wax sections at a dilution of 1:800, overnight at 4° C. after the section had been pre-treated with trypsin (0.5 mg/ml, 25 minutes, 37° C.). Primary antibodies for decorin were obtained from Biogenesis (rabbit polyclonal) and used on wax sections at a dilution of 1:800, overnight at 4° C. Anti-rat biotinylated secondary antibodies, obtained from DAKO (cat# E0468, rabbit polyclonal), were applied to wax sections at a dilution of 1:400. Anti-rabbit biotinylated secondary antibodies, obtained from Amersham (cat# RPN 1004, donkey polyclonal), were applied to wax sections at a dilution of 1:400. Streptavidin conjugated alkaline phosphatase, obtained from Zymed (cat# 43-4322), was used at a concentration of 1:2500. […]
# [4] = system: decorin; test: Dot blot assay for decorin synthesis in human dermal fibroblasts; assay type: cell-based; conditions: Homo sapiens, Fibroblast, 24 h; 1 μm (so in the source); p=0.035, n=4; comparative trial; read-out: Decorin synthesis relative to vehicle treated control value of 100
# Experimental: Primary human foreskin fibroblasts at passage 2 (P2) were seeded into 12-well plates at 10000 cells/cm^2 and maintained for 24 hours in an atmosphere of 5% carbon dioxide and 4% oxygen in Dulbeccos Modified Eagles Medium (DMEM) supplemented with 10% foetal calf serum. After this time the cells were washed with serum free DMEM and then incubated in fresh serum free DMEM for a further 60 hours. The fibroblast monolayers were then washed again with serum free DMEM. Test reagents and vehicle controls were added to the cells in triplicate in a final volume of 0.4 ml/well fresh serum free DMEM and incubated for a further 24 hours. This fibroblast conditioned medium was either analysed immediately or snap frozen in liquid nitrogen and stored at -70° C. for future analysis. The cells were then counted and data from the dot-blot analysis subsequently standardised to cell number.
# Samples of conditioned medium from dermal fibroblasts treated with vehicle (as a control) or test reagents were supplemented with 20 mM dithiothreitol (1:10 dilution of 200 mM stock solution) and 0.1% sodium dodecylsulphate (1:100 dilution of 10% stock solution), mixed well and then incubated at 75° C. for 2 minutes. A standard for the assay was generated by serial dilution of neat fibroblast conditioned medium from fibroblasts seeded at 10000 cells/cm^2 in a 175 cm^2 flask and maintained in serum free DMEM as described above. Assay samples were subsequently applied in triplicate to a prewetted sheet of Immobilon-P transfer membrane using the 96-well Bio-Dot Apparatus from Bio-Rad as described in the manufacturers guidelines. Approximately 200 μl of medium was applied per well. […] Dot intensity was assessed by computer-assisted image analysis using the quantification tools in ImageQuant™, standardised to cell number and the effects of various test reagents on decorin and procollagen-I synthesis were determined relative to a vehicle treated control value of 100 arbitrary units.
# [5] = system: procollagen-I; test: Immunohistochemical analysis of procollagen-I expression in photodamaged skin biopsies after topical retinoic acid; assay type: in vivo, human (women); conditions: for No. of Participants showing marked increase in expression of procollagen-I: 0.05% retinoic acid topical
# Description: as §1, §2
# [6] = Group 1 after 14 weeks, total 16 participants, daily
# [7] = Group 2 after 28 weeks, total 15 participants
# [8] = topical application of Retinova, vs placebo
compound,measurement,setting,value
"CCCCCCCCCCCCCC(=O)O[C@@H]1[C@@H](C)[C@@]2(O)[C@@H](C=C(CO)C[C@]3(O)C(=O)C(C)=C[C@@H]23)[C@@H]2C(C)(C)[C@]12OC(C)=O [PMA, phorbal myristate acetate, reference compound]",ICAM,[1],14.42 ± 1.86 ng/mL
"CCCCCCCCCCCCOS(=O)(=O)[O-].[Na+] [SDS, sodium dodecyl sulphate, reference compound]",viability at 2 µg/mL,[2],55.8%
"CC1=C(/C=C/C(C)=C/C=C/C(C)=C/C(=O)O)C(C)(C)CCC1 [Retinoic Acid, retinoic acid]",No. of Participants showing marked increase in expression of decorin,[3]; [6],10
same,No. of Participants showing marked increase in expression of decorin,[3]; [7],15
same,decorin expression in photodamaged skin (in words),[3]; [8],marked upregulation
same,activity at 1 µM,[4],138 ± 14%
same,No. of Participants showing marked increase in expression of procollagen-I,[5]; [6],9
same,No. of Participants showing marked increase in expression of procollagen-I,[5]; [7],10
same,procollagen-I expression in photodamaged skin (in words),[5]; [8],marked upregulation
